Assay results published in patent US4507487A, “Chemical compounds” (Bristol-Myers Company, priority 1983, dated 1985).
In brackets after ≈: the same amount, converted by molar mass. Read-outs that look alike come from different tables or passages of the source.

Assays:
[1] = system: Penicillinsensitive S. aureus; assay: MIC, two-fold serial agar dilution in Mueller-Hinton agar, group (G+)-Ia; assay type: cell-based; conditions: Staphylococcus aureus; (G+)-Ia, penicillin-sensitive S. aureus (5 strains); read-out: Geometric Mean of MIC
Procedure: (§1) In the primary evaluation of the compounds of this invention, the Minimum Inhibitory Concentrations (MIC's) of the compounds were determined by the two-fold serial agar dilution method in Mueller-Hinton agar against 32 strains of test organisms in six groups.

Ps. aeruginosa = assay: MIC, two-fold serial agar dilution in Mueller-Hinton agar, group (G-)-III; assay type: cell-based; conditions: Pseudomonas aeruginosa, Ps. aeruginosa (6 strains), read-out: Geometric Mean of MIC
Procedure: as §1

[2] = system: Cephalothinresistant E. coli and Kl. pneumoniae; assay: MIC, two-fold serial agar dilution in Mueller-Hinton agar, group (G-)-Ib; assay type: cell-based; conditions: read-out: Geometric Mean of MIC
Procedure: as §1
(G-)Ib: Cephalothinresistant E. coli (3 strains) and Kl. pneumoniae (3

[3] = system: M. morganii, Ent. cloacae and Ser. marcescens; assay: MIC, two-fold serial agar dilution in Mueller-Hinton agar, group (G-)-II; assay type: cell-based; conditions: (G-)-II, M. morganii (1), Ent. cloacae (2), Ser. marcescens (2 strains); read-out: Geometric Mean of MIC
Procedure: as §1
(G-)II: M. morganii (1 strain), Ent. cloacae (2 strains) and Ser.

[4] = system: Cephalothinsensitive E. coli, Kl. pneumoniae and Pr. mirabilis; assay: MIC, two-fold serial agar dilution in Mueller-Hinton agar, group (G-)-Ia; assay type: cell-based; conditions: (G-)-Ia, cephalothin-sensitive E. coli (2), Kl. pneumoniae (1), Pr. mirabilis (2 strains); read-out: Geometric Mean of MIC
Procedure: as §1
(G-)Ia: Cephalothinsensitive E. coli (2 strains), Kl. pneumoniae (1
strain) and Pr. mirabilis (2 strains)

[5] = system: Penicillinresistant S. aureus; assay: MIC, two-fold serial agar dilution in Mueller-Hinton agar, group (G+)-Ib; assay type: cell-based; conditions: Staphylococcus aureus, read-out: Geometric Mean of MIC
Procedure: as §1
(G+)Ib: Penicillinresistant S. aureus (5 strains)

[6] = Mouse blood levels after single intramuscular injection; assay type: in vivo, mice; conditions: for concentration at 10 min / concentration at 20 min / concentration at 0.5 h / concentration at 40 min / concentration at 50 min / concentration at 1 h / concentration at 1.5 h: read-out: Mouse Blood Level; for concentration at 0.5 h: 30 minutes; for concentration at 1 h: 60 minutes; for concentration at 1.5 h: 90 minutes
Procedure: The absorption of some of the preferred compounds were determined in mice following a single intramuscular injection of the test compound (dissolved in 0.1M phosphate buffer; pH 7) at a dosage of 10, 20 or 40 mg/kg. Blood samples were collected from the orbital sinuses into heparinized capillary tubes and assayed in Nutrient Agar (pH 6.6) using E. coli Ess-22-31 as the test organism. The blood levels at various time intervals, the half-life values (t1/2) and the areas under the curve (AUC) are shown in Table 3.

E. coli Juhl = assay: MIC against specific test organism; assay type: cell-based; conditions: Escherichia coli, read-out: Minimum Inhibitory Concentration
Procedure: as §1
(§2) The test method was as described for Table 1.

Ps. aeruginosa A20717 = assay: MIC against specific test organism; assay type: cell-based; conditions: Pseudomonas aeruginosa, read-out: Minimum Inhibitory Concentration
Procedure: as §1, §2

Ps. aeruginosa A15150 = assay: MIC against specific test organism; assay type: cell-based; conditions: Pseudomonas aeruginosa, read-out: Minimum Inhibitory Concentration
Procedure: as §1, §2

Ps. aeruginosa A9843 = assay: MIC against specific test organism; assay type: cell-based; conditions: Pseudomonas aeruginosa, read-out: Minimum Inhibitory Concentration
Procedure: as §1, §2

K. pneumoniae A9867 = assay: MIC against specific test organism; assay type: cell-based; conditions: Klebsiella pneumoniae, A9867, read-out: Minimum Inhibitory Concentration
Procedure: as §1, §2

Pr. mirabilis A9554 = assay: MIC against specific test organism; assay type: cell-based; conditions: Proteus mirabilis, read-out: Minimum Inhibitory Concentration
Procedure: as §1, §2

M. morganii A9553 = assay: MIC against specific test organism; assay type: cell-based; conditions: Morganella morganii, read-out: Minimum Inhibitory Concentration
Procedure: as §1, §2

K. pneumoniae D11 = assay: MIC against specific test organism; assay type: cell-based; conditions: Klebsiella pneumoniae, read-out: Minimum Inhibitory Concentration
Procedure: as §1, §2

Ser. marcescens A20019 = assay: MIC against specific test organism; assay type: cell-based; conditions: Serratia marcescens, read-out: Minimum Inhibitory Concentration
Procedure: as §1, §2

S. aureus Smith = assay: MIC against specific test organism; assay type: cell-based; conditions: Staphylococcus aureus, read-out: Minimum Inhibitory Concentration
Procedure: as §1, §2

S. aureus BX-1633-2 = assay: MIC against specific test organism; assay type: cell-based; conditions: Staphylococcus aureus, BX16332; S. aureus BX-1633-2, penicillin-resistant strain; read-out: Minimum Inhibitory Concentration
Procedure: as §1, §2

Ent. cloacae A9656 = assay: MIC against specific test organism; assay type: cell-based; conditions: Enterobacter cloacae, read-out: Minimum Inhibitory Concentration
Procedure: as §1, §2

E. coli A15164 = assay: MIC against specific test organism; assay type: cell-based; conditions: Escherichia coli; E. coli A15164, cephalothin-resistant strain; read-out: Minimum Inhibitory Concentration
Procedure: as §1, §2

CSc1scc[n+]1CC1=C(C(=O)[O-])N2C(=O)C(NC(=O)/C(=N\OC(C)(C)C(=O)O)c3csc(N)n3)[C@H]2SC1 (stereo partly shown) [Example 1, 7-[(Z)-2-(2-Aminothiazol-4-yl)-2-(2-carboxyprop-2-oxyimino)acetamido]-3-(2-methylthiothiazolio)methyl-3-cephem-4-carboxylate]
MIC [1]: 1.2 µg/mL (≈ 2 µM)
MIC (Ps. aeruginosa): 1.4 µg/mL (≈ 2.34 µM)
MIC [2]: 0.69 µg/mL (≈ 1.15 µM)
MIC [3]: 0.24 µg/mL (≈ 0.401 µM)
MIC [4]: 0.038 µg/mL (≈ 0.0635 µM)
MIC [5]: 3.6 µg/mL (≈ 6.01 µM)
AUC ([6]; 10 mg/kg im): 5000 ng·h/mL
half-life ([6]; 10 mg/kg im): 15 min
concentration at 10 min ([6]; 10 mg/kg im): 12000 ng/mL
concentration at 20 min ([6]; 10 mg/kg im): 7400 ng/mL
concentration at 0.5 h ([6]; 10 mg/kg im): 4700 ng/mL
concentration at 40 min ([6]; 10 mg/kg im): < 3000 ng/mL
AUC ([6]; 20 mg/kg im): 16000 ng·h/mL
half-life ([6]; 20 mg/kg im): 14 min
concentration at 10 min ([6]; 20 mg/kg im): 33000 ng/mL
concentration at 20 min ([6]; 20 mg/kg im): 24000 ng/mL
concentration at 0.5 h ([6]; 20 mg/kg im): 18000 ng/mL
concentration at 40 min ([6]; 20 mg/kg im): 9400 ng/mL
concentration at 50 min ([6]; 20 mg/kg im): 6700 ng/mL
concentration at 1 h ([6]; 20 mg/kg im): 3500 ng/mL
concentration at 1.5 h ([6]; 20 mg/kg im): < 3000 ng/mL
AUC ([6]; 40 mg/kg im): 25000 ng·h/mL
half-life ([6]; 40 mg/kg im): 13 min
concentration at 10 min ([6]; 40 mg/kg im): 51000 ng/mL
concentration at 20 min ([6]; 40 mg/kg im): 40000 ng/mL
concentration at 0.5 h ([6]; 40 mg/kg im): 29000 ng/mL
concentration at 40 min ([6]; 40 mg/kg im): 15000 ng/mL
concentration at 50 min ([6]; 40 mg/kg im): 9000 ng/mL
concentration at 1 h ([6]; 40 mg/kg im): 4600 ng/mL
concentration at 1.5 h ([6]; 40 mg/kg im): < 3000 ng/mL
MIC (E. coli Juhl): 0.1 µg/mL (≈ 0.167 µM)
MIC (Ps. aeruginosa A20717): 3.1 µg/mL (≈ 5.18 µM)
MIC (Ps. aeruginosa A15150): 0.8 µg/mL (≈ 1.34 µM)
MIC (Ps. aeruginosa A9843): 1.6 µg/mL (≈ 2.67 µM)
MIC (K. pneumoniae A9867): 1.6 µg/mL (≈ 2.67 µM)
MIC (Pr. mirabilis A9554): 0.05 µg/mL (≈ 0.0835 µM)
MIC (M. morganii A9553): 0.1 µg/mL (≈ 0.167 µM)
MIC (K. pneumoniae D11): 0.1 µg/mL (≈ 0.167 µM)
MIC (Ser. marcescens A20019): 0.1 µg/mL (≈ 0.167 µM)
MIC (S. aureus Smith): 1.6 µg/mL (≈ 2.67 µM)
MIC (S. aureus BX-1633-2): 3.1 µg/mL (≈ 5.18 µM)
MIC (Ent. cloacae A9656): 0.1 µg/mL (≈ 0.167 µM)
MIC (E. coli A15164): 0.8 µg/mL (≈ 1.34 µM)
